# Experimental data published in PMC10052474, “Carbon Fixation in the Chemolithoautotrophic Bacterium Aquifex aeolicus Involves Two Low-Potential Ferredoxins as Partners of the PFOR and OGOR Enzymes” (Life, 2023).
# Tests used:
# [1] = target: T1, Fd7Strep (recombinant ferredoxin 7) (Aquifex aeolicus, UniProt Z9T2O6C3G9); test: EPR spectroscopy and UV-visible absorption; format: binding; conditions: purified protein, dithionite-reduced, […] K
# T1 construct: full length with C-terminal Strep-tag II, expressed in E. coli MG1655 ΔiscR; native protein 80 residues, apoprotein 9130 Da; native N-terminus […]
# T1 sequence (Z9T2O6C3G9 1-80): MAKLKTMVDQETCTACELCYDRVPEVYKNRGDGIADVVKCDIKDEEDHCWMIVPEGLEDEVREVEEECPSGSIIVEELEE
# [2] = target: T2, PFOR (pyruvate:ferredoxin oxidoreductase, Porαβγδε) (Aquifex aeolicus, UniProt O67254+O67255+O67256); test: spectrophotometric methyl viologen reduction at […] nm, enriched fraction; in-gel activity; format: biochemical; conditions: 10 mM pyruvate, 0.1 mM CoA, 0.2 mM TPP, 1 mM MgCl2, 5 mM methyl viologen, pH 8, 80 °C, anaerobic; decarboxylation direction
# T2 construct: gene forA1; native, enriched from soluble fraction (DEAE step); dimer of pentamers (αβγδε)2, about 250-300 kDa; with pyruvate:ferredoxin oxidoreductase subunit epsilon (ferredoxin-like, Fd3); pyruvate:ferredoxin oxidoreductase subunit delta
# T2 sequence (O67255 entry or part of it): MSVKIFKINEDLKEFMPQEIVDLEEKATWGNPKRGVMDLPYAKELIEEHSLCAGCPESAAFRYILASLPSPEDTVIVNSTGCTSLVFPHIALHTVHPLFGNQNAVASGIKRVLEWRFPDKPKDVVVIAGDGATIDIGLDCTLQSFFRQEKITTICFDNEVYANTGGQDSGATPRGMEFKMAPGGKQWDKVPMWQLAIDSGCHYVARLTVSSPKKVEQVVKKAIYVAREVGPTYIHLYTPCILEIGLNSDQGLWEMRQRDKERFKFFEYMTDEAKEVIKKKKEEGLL
# T2 sequence (O67254 entry or part of it): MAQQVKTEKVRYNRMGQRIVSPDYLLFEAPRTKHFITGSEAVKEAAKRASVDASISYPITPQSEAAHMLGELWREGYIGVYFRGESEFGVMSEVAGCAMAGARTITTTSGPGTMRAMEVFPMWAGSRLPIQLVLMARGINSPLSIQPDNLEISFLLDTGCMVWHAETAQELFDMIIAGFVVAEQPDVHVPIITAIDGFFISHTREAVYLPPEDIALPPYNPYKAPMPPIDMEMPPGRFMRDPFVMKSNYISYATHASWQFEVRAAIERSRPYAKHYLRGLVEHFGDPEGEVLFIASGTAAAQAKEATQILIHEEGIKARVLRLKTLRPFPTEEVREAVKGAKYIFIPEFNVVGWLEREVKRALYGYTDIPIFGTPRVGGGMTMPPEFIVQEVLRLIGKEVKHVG
# T2 sequence (O67256 entry or part of it): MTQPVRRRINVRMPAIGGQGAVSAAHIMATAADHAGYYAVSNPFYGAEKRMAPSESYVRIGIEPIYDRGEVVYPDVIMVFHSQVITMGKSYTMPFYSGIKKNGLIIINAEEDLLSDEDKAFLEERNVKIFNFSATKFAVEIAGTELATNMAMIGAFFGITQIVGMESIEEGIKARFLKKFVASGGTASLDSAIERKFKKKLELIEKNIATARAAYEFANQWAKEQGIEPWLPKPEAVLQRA
# T2 sequence (O67251 whole entry, further chain): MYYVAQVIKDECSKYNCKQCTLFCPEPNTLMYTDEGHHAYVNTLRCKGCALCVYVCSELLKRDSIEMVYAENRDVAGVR
# T2 sequence (O67252 entry or part of it, further chain): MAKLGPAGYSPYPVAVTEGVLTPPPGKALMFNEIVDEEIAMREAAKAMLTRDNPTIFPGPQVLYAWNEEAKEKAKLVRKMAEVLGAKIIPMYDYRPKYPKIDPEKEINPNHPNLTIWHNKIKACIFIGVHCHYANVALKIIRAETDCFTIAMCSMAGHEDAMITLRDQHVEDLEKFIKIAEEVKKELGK
# [3] = target: pyruvate:ferredoxin oxidoreductase (PFOR) of Aquifex aeolicus, five-subunit complex PORαβγδε (Aquifex aeolicus (endogenous in A. aeolicus VF5 cells)) (UniProt O67254); test: native gel or EMSA; 3-12% Blue Native gel of elution fraction 2 of the Fd7Strep pull-down; in-gel PFOR and OGOR activity at roughly 300 kDa; proteins of the activity bands identified by mass spectrometry; for the self-association: dimer of the αβγδε protomer, from the estimated mass
# [4] = target: T3, OGOR (2-oxoglutarate:ferredoxin oxidoreductase, Forαβγδε) (Aquifex aeolicus, UniProt O67229+O67230+O67231); test: spectrophotometric methyl viologen reduction at […] nm, enriched fraction; in-gel activity; format: biochemical; conditions: 10 mM 2-oxoglutarate, 0.1 mM CoA, 0.2 mM TPP, 1 mM MgCl2, 5 mM methyl viologen, pH 8, 80 °C, anaerobic; decarboxylation direction
# T3 construct: gene forA2; native, enriched from soluble fraction (DEAE, then Bio-Gel HTP); dimer of pentamers (αβγδε)2, about 250-300 kDa; Aq_1163 may co-migrate; with 2-oxoglutarate:ferredoxin oxidoreductase subunit epsilon (ferredoxin-like, Fd2); 2-oxoglutarate:ferredoxin oxidoreductase subunit delta
# T3 sequence (O67229 1-389): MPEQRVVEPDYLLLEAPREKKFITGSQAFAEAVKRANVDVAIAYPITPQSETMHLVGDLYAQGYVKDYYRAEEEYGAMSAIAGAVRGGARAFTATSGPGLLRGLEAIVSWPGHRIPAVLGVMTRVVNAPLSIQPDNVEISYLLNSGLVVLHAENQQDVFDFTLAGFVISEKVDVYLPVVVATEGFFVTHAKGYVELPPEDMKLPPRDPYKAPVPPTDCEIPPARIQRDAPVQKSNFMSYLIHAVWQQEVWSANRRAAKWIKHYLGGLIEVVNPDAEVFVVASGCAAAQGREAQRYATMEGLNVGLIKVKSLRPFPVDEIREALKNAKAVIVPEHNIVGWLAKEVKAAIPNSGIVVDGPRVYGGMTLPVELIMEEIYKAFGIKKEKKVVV
# T3 sequence (O67230 1-289): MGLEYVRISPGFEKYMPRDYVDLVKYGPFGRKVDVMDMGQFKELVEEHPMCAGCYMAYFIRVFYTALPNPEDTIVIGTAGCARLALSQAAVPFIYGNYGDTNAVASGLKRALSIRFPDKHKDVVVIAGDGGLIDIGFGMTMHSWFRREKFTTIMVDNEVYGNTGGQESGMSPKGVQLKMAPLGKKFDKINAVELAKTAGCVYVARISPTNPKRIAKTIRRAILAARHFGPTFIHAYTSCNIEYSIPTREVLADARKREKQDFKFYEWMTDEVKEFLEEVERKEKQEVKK
# T3 sequence (O67231 1-230): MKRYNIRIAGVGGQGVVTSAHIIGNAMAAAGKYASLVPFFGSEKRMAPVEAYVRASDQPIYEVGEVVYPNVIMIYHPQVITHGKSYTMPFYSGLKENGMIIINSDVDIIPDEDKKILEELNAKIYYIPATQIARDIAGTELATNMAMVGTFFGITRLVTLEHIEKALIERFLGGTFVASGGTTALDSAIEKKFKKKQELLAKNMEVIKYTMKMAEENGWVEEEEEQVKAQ
# T3 sequence (O67228 29-244 partner limits assumed): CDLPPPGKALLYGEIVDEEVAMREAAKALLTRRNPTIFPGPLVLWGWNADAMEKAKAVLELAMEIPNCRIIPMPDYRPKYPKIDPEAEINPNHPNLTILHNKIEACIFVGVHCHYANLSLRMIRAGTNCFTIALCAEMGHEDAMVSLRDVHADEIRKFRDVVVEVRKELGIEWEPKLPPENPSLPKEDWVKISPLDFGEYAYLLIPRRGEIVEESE
# T3 sequence (O67232 whole entry partner): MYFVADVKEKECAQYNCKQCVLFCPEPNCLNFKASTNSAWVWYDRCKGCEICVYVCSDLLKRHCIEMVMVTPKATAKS
# [5] = target: 2-oxoglutarate:ferredoxin oxidoreductase (OGOR) of Aquifex aeolicus, five-subunit complex FORαβγδε (Aquifex aeolicus (endogenous in A. aeolicus VF5 cells)) (UniProt O67229); test: native gel or EMSA; 3-12% Blue Native gel of elution fraction 2 of the Fd7Strep pull-down; in-gel PFOR and OGOR activity at roughly 300 kDa; proteins of the activity bands identified by mass spectrometry; for the self-association: dimer of the αβγδε protomer, from the estimated mass
compound,measurement,setting,value
[S]12[Fe]3[S]4[Fe]1[S]1[Fe]2[S]3[Fe]41 [[4Fe-4S] cluster],EPR spectroscopy and UV-visible absorption,[1],confirming the presence of one [4Fe-4S] center per Fd molecule
CC(=O)C(=O)O [pyruvate],"spectrophotometric methyl viologen reduction at 604 nm, enriched fraction; in-ge",[2],pyruvate for PFOR and 2-oxoglutarate for OGOR
"pyruvate:ferredoxin oxidoreductase (PFOR) of Aquifex aeolicus, five-subunit complex PORαβγδε (from UniProt O67254 1-404; O67255 1-286; O67256 1-241; O67251 1-79; O67252 1-189)",stoichiometry N,[3],2
O=C(O)CCC(=O)C(=O)O [2-oxoglutarate],"spectrophotometric methyl viologen reduction at 604 nm, enriched fraction; in-ge",[4],pyruvate for PFOR and 2-oxoglutarate for OGOR
"2-oxoglutarate:ferredoxin oxidoreductase (OGOR) of Aquifex aeolicus, five-subunit complex FORαβγδε (from UniProt O67229 1-389; O67230 1-289; O67231 1-230; O67232 1-78; O67228 1-244)",stoichiometry N,[5],2
